Reference: patent US10709765B2, “Composition for inhibiting survival or growth of tubercle bacillus by adjusting polarization of macrophage, and method using same” (priority 2016, dated 2020)
Read-outs that look alike come from different tables or passages of the source.

Test system: Mycobacterium tuberculosis
Type: cell-based
[1] = anti-tuberculosis drug alone, […]

Compound | number of intracellular Mycobacterium tuberculosis | number of intracellular Mycobacterium tuberculosis [1]
CC[C@@H](CO)NCCN[C@@H](CC)CO [Ethambutol] | the number of Mycobacterium tuberculosis was reduced | –
NNC(=O)c1ccncc1 [Isoniazid] | – | the number of Mycobacterium tuberculosis was reduced
NC(=O)c1cnccn1 [Pyrazinamide] | – | the number of Mycobacterium tuberculosis was reduced
